Assay: Adverse events graded by NCI CTCAE v4.0, all reported regardless of attribution
Type: in vivo, human

CC(=O)c1c(C)c2cnc(Nc3ccc(N4CCNCC4)cn3)nc2n(C2CCCC2)c1=O [palbociclib]
38: White blood cell decreased, episodes (Stratum II, overall)
37: White blood cell decreased, episodes (Stratum I, grade 2)
6: Constipation, patients (Stratum I, grade 1) | Constipation, patients (Stratum I, overall) | Hypokalemia, episodes (Stratum I, overall) | Nausea, episodes (Stratum I, overall) | Neutrophil count decreased, episodes (Stratum II, grade 1) | Lymphocyte count decreased, episodes (Stratum II, grade 2) | White blood cell decreased, patients (Stratum II, grade 3) | Vomiting, episodes (Stratum II, overall)
5(5): Ataxia, episodes (Stratum I, overall) | Ataxia, patients (Stratum I, overall)
5: Anemia, patients (Stratum I, grade 1) | Hypokalemia, episodes (Stratum I, grade 1) | Mucositis oral, episodes (Stratum I, grade 1) | Neutrophil count decreased, patients (Stratum I, grade 1) | Vomiting, episodes (Stratum I, grade 1) | Mucositis oral, episodes (Stratum I, grade 2) | Hypokalemia, patients (Stratum I, overall) | Vomiting, patients (Stratum I, overall) | Lymphocyte count decreased, patients (Stratum II, grade 1) | Vomiting, episodes (Stratum II, grade 1) | White blood cell decreased, patients (Stratum II, grade 1) | Platelet count decreased, episodes (Stratum II, grade 2)
17: Lymphocyte count decreased, episodes (Stratum I, grade 2) | White blood cell decreased, patients (Stratum I, overall) | Anemia, episodes (Stratum II, grade 1)
7: Anemia, episodes (Stratum I, grade 1) | Neutrophil count decreased, patients (Stratum I, grade 2) | Lymphocyte count decreased, patients (Stratum I, grade 3) | Anemia, patients (Stratum I, overall) | Headache, episodes (Stratum I, overall) | Vomiting, episodes (Stratum I, overall) | White blood cell decreased, episodes (Stratum II, grade 3) | Lymphocyte count decreased, patients (Stratum II, overall)
2: Mucositis oral, patients (Stratum I, grade 1) | Headache, patients (Stratum I, grade 2) | Mucositis oral, patients (Stratum I, grade 2) | Alanine aminotransferase increased, patients (Stratum II, grade 1) | Dizziness, patients (Stratum II, grade 1) | Electrocardiogram qt corrected interval prolonged, patients (Stratum II, grade 1) | Constipation, episodes (Stratum II, grade 2) | Alanine aminotransferase increased, patients (Stratum II, overall) | Constipation, patients (Stratum II, overall) | Electrocardiogram qt corrected interval prolonged, patients (Stratum II, overall)
11: Neutrophil count decreased, patients (Stratum II, overall) | White blood cell decreased, patients (Stratum II, overall)
4: Diarrhea, episodes (Stratum I, grade 1) | Headache, episodes (Stratum I, grade 1) | Hypokalemia, patients (Stratum I, grade 1) | Nausea, episodes (Stratum I, grade 1) | Vomiting, patients (Stratum I, grade 1) | Lymphocyte count decreased, patients (Stratum I, grade 2) | Diarrhea, episodes (Stratum I, overall) | Headache, patients (Stratum I, overall) | Neutrophil count decreased, patients (Stratum II, grade 1) | Dizziness, episodes (Stratum II, overall) | Vomiting, patients (Stratum II, overall)
39: Neutrophil count decreased, episodes (Stratum II, overall)
2(2): Anemia, episodes (Stratum I, grade 2) | Anemia, patients (Stratum I, grade 2) | Gait disturbance, episodes (Stratum I, grade 2) | Gait disturbance, patients (Stratum I, grade 2) | Aspartate aminotransferase increased, episodes (Stratum II, grade 1) | Aspartate aminotransferase increased, patients (Stratum II, grade 1) | Fatigue, episodes (Stratum II, grade 1) | Fatigue, patients (Stratum II, grade 1) | Hypercalcemia, episodes (Stratum II, grade 1) | Hypercalcemia, patients (Stratum II, grade 1) | Hyperkalemia, episodes (Stratum II, grade 1) | Hyperkalemia, patients (Stratum II, grade 1) | Fatigue, episodes (Stratum II, grade 2) | Fatigue, patients (Stratum II, grade 2) | Headache, episodes (Stratum II, grade 3) | Headache, patients (Stratum II, grade 3) | Platelet count decreased, episodes (Stratum II, grade 3) | Platelet count decreased, patients (Stratum II, grade 3) | Aspartate aminotransferase increased, episodes (Stratum II, overall) | Aspartate aminotransferase increased, patients (Stratum II, overall) | Hypercalcemia, episodes (Stratum II, overall) | Hypercalcemia, patients (Stratum II, overall) | Hyperkalemia, episodes (Stratum II, overall) | Hyperkalemia, patients (Stratum II, overall) | Mucositis oral, episodes (Stratum II, overall) | Mucositis oral, patients (Stratum II, overall) | Pain, episodes (Stratum II, overall) | Pain, patients (Stratum II, overall)
18: White blood cell decreased, episodes (Stratum II, grade 2)
myelosuppression: most common toxicity (Stratum I and II)
20: Anemia, episodes (Stratum II, overall)
12: Lymphocyte count decreased, episodes (Stratum I, grade 3)
22: Lymphocyte count decreased, episodes (Stratum I, grade 1)
3: Diarrhea, patients (Stratum I, grade 1) | Headache, patients (Stratum I, grade 1) | Nausea, patients (Stratum I, grade 1) | Headache, episodes (Stratum I, grade 2) | White blood cell decreased, patients (Stratum I, grade 3) | Diarrhea, patients (Stratum I, overall) | Mucositis oral, patients (Stratum I, overall) | Nausea, patients (Stratum I, overall) | Alanine aminotransferase increased, episodes (Stratum II, grade 1) | Dizziness, episodes (Stratum II, grade 1) | Electrocardiogram qt corrected interval prolonged, episodes (Stratum II, grade 1) | Vomiting, patients (Stratum II, grade 1) | Lymphocyte count decreased, patients (Stratum II, grade 2) | Platelet count decreased, patients (Stratum II, grade 2) | Alanine aminotransferase increased, episodes (Stratum II, overall) | Constipation, episodes (Stratum II, overall) | Dizziness, patients (Stratum II, overall) | Electrocardiogram qt corrected interval prolonged, episodes (Stratum II, overall)
26: Neutrophil count decreased, episodes (Stratum I, grade 2)
64: Neutrophil count decreased, episodes (Stratum I, overall)
1: Constipation, patients (Stratum II, grade 2)
70: White blood cell decreased, episodes (Stratum I, overall)
14: White blood cell decreased, episodes (Stratum I, grade 1) | White blood cell decreased, patients (Stratum I, grade 2)
3(3): Dry skin, episodes (Stratum I, grade 1) | Dry skin, patients (Stratum I, grade 1) | Ataxia, episodes (Stratum I, grade 2) | Ataxia, patients (Stratum I, grade 2) | Fatigue, episodes (Stratum I, grade 2) | Fatigue, patients (Stratum I, grade 2) | Muscle weakness left-sided, episodes (Stratum I, grade 3) | Muscle weakness left-sided, patients (Stratum I, grade 3) | Neutrophil count decreased, episodes (Stratum I, grade 4) | Neutrophil count decreased, patients (Stratum I, grade 4) | Dry skin, episodes (Stratum I, overall) | Dry skin, patients (Stratum I, overall) | Gait disturbance, episodes (Stratum I, overall) | Gait disturbance, patients (Stratum I, overall) | Muscle weakness left-sided, episodes (Stratum I, overall) | Muscle weakness left-sided, patients (Stratum I, overall) | Anorexia, episodes (Stratum II, grade 1) | Anorexia, patients (Stratum II, grade 1) | Hypokalemia, episodes (Stratum II, grade 1) | Hypokalemia, patients (Stratum II, grade 1) | Anemia, episodes (Stratum II, grade 2) | Anemia, patients (Stratum II, grade 2) | Lymphocyte count decreased, episodes (Stratum II, grade 3) | Lymphocyte count decreased, patients (Stratum II, grade 3) | Seizure, episodes (Stratum II, grade 3) | Seizure, patients (Stratum II, grade 3) | Anorexia, episodes (Stratum II, overall) | Anorexia, patients (Stratum II, overall) | Hypokalemia, episodes (Stratum II, overall) | Hypokalemia, patients (Stratum II, overall) | Seizure, episodes (Stratum II, overall) | Seizure, patients (Stratum II, overall)
1(1): Ataxia, episodes (Stratum I, grade 1) | Ataxia, patients (Stratum I, grade 1) | Hypokalemia, episodes (Stratum I, grade 2) | Hypokalemia, patients (Stratum I, grade 2) | Nausea, episodes (Stratum I, grade 2) | Nausea, patients (Stratum I, grade 2) | Vomiting, episodes (Stratum I, grade 2) | Vomiting, patients (Stratum I, grade 2) | Ataxia, episodes (Stratum I, grade 3) | Ataxia, patients (Stratum I, grade 3) | Gait disturbance, episodes (Stratum I, grade 3) | Gait disturbance, patients (Stratum I, grade 3) | Nausea, episodes (Stratum I, grade 3) | Nausea, patients (Stratum I, grade 3) | Vomiting, episodes (Stratum I, grade 3) | Vomiting, patients (Stratum I, grade 3) | Constipation, episodes (Stratum II, grade 1) | Constipation, patients (Stratum II, grade 1) | Headache, episodes (Stratum II, grade 1) | Headache, patients (Stratum II, grade 1) | Mucositis oral, episodes (Stratum II, grade 1) | Mucositis oral, patients (Stratum II, grade 1) | Pain, episodes (Stratum II, grade 1) | Pain, patients (Stratum II, grade 1) | Dizziness, episodes (Stratum II, grade 2) | Dizziness, patients (Stratum II, grade 2) | Headache, episodes (Stratum II, grade 2) | Headache, patients (Stratum II, grade 2) | Mucositis oral, episodes (Stratum II, grade 2) | Mucositis oral, patients (Stratum II, grade 2) | Pain, episodes (Stratum II, grade 3) | Pain, patients (Stratum II, grade 3) | Vomiting, episodes (Stratum II, grade 3) | Vomiting, patients (Stratum II, grade 3) | Neutrophil count decreased, episodes (Stratum II, grade 4) | Neutrophil count decreased, patients (Stratum II, grade 4) | Platelet count decreased, episodes (Stratum II, grade 4) | Platelet count decreased, patients (Stratum II, grade 4)
51: Lymphocyte count decreased, episodes (Stratum I, overall)
16: Platelet count decreased, episodes (Stratum II, grade 1)
4(4): Alanine aminotransferase increased, episodes (Stratum I, grade 1) | Alanine aminotransferase increased, patients (Stratum I, grade 1) | Alanine aminotransferase increased, episodes (Stratum I, overall) | Alanine aminotransferase increased, patients (Stratum I, overall) | Fatigue, episodes (Stratum II, overall) | Fatigue, patients (Stratum II, overall) | Headache, episodes (Stratum II, overall) | Headache, patients (Stratum II, overall)
13: Lymphocyte count decreased, patients (Stratum I, overall) | White blood cell decreased, episodes (Stratum II, grade 1) | Neutrophil count decreased, episodes (Stratum II, grade 3)
7(7): Fatigue, episodes (Stratum I, grade 1) | Fatigue, patients (Stratum I, grade 1)
28: Platelet count decreased, episodes (Stratum I, grade 1) | Platelet count decreased, episodes (Stratum I, overall)
19: White blood cell decreased, episodes (Stratum I, grade 3) | Neutrophil count decreased, episodes (Stratum II, grade 2) | Lymphocyte count decreased, episodes (Stratum II, overall)
8: Constipation, episodes (Stratum I, grade 1) | Lymphocyte count decreased, patients (Stratum I, grade 1) | Neutrophil count decreased, episodes (Stratum I, grade 1) | Constipation, episodes (Stratum I, overall) | Platelet count decreased, patients (Stratum II, grade 1) | Platelet count decreased, patients (Stratum II, overall)
24: Platelet count decreased, episodes (Stratum II, overall)
27: Neutrophil count decreased, episodes (Stratum I, grade 3)
10: Platelet count decreased, patients (Stratum I, grade 1) | Fatigue, episodes (Stratum I, overall) | Mucositis oral, episodes (Stratum I, overall) | Platelet count decreased, patients (Stratum I, overall) | Lymphocyte count decreased, episodes (Stratum II, grade 1) | Neutrophil count decreased, patients (Stratum II, grade 2) | Anemia, patients (Stratum II, overall)
9: White blood cell decreased, patients (Stratum I, grade 1) | Neutrophil count decreased, patients (Stratum I, grade 3) | Anemia, episodes (Stratum I, overall) | Fatigue, patients (Stratum I, overall) | Anemia, patients (Stratum II, grade 1) | White blood cell decreased, patients (Stratum II, grade 2) | Neutrophil count decreased, patients (Stratum II, grade 3)
15: Neutrophil count decreased, patients (Stratum I, overall)
